Laboratory results published in ChEMBL document CHEMBL3862043, “Fluorescent Inhibitors as Tools To Characterize Enzymes: Case Study of the Lipid Kinase Phosphatidylinositol 4-Kinase IIIβ (PI4KB)” (J Med Chem, 2017).

Assay: Drug uptake in vesicles of HeLa cells transfected with iRFP-tagged PI4KB (unknown origin) incubated for 30 mins by fluorescence spectroscopy
Format: ADME, cell-based
Details: human, 0.5 h; call rule not given here

SMILES: CCc1cc(CNc2cc(Cl)nn3c(-c4ccc(OC)c(S(=O)(=O)NCc5cn(-c6cc7ccc(O)cc7oc6=O)nn5)c4)c(C)nc23)ccn1
- Drug uptake: Active
